According to ChEMBL document CHEMBL1141828, “Artoindonesianins A and B, two new prenylated flavones from the root of Artocarpus champeden” (J Nat Prod, 1999):
In brackets after ≈: the same amount, converted by molar mass.

System: P388
Assay: Cytotoxicity against mouse P388 cells by microculture tetrazolium assay
Format: functional, cell-based

Compound | IC50 [µg/mL]
CC(C)=CCC/C(C)=C/Cc1c2c(c(O)c3c(=O)c4c(oc13)-c1c(O)cc(O)c3c1C(C4)C(C)(C)O3)C=CC(C)(C)O2 (configuration not stated) [ARTOINDONESIANIN A] | 21 (≈ 36.8 µM)
COc1cc2oc3c(c(=O)c2c(O)c1/C=C/C(C)C)CC(C(C)(C)OO)Oc1cc(O)ccc1-3 (configuration not stated) [ARTOINDONESIANIN B] | 3.9 (≈ 8.32 µM)
